In US4957920A, “Benzimidazoles, and pharmaceutical preparations containing these compounds” (priority 1987, dated 1990):
Like-named read-outs stand apart in the source and are kept apart here.

Legend:
narcotised guinea pigs = assay: Haemodynamic characterisation on narcotised guinea pigs (in vivo model); set-up: species or system guinea pig; conditions: 10 μg/kg/min, infused through left jugular vein, under β-blockage (metoprolol 2 mg/kg i.m.)
Description: (§1) The benzimidazoles according to the invention corresponding to the general formula I combine good oral availability with interesting pharmacological properties, especially cardiovascular effects, in particular positive inotropic and blood pressure lowering effects. They show an excellent cardiotonic activity in numerous pharmacological standard models, for example in vitro in the isolated, perfused Langendorff heart or in vivo on narcotised guinea pigs, where they produce a marked increase in contractility.
2. Haemodynamic Characterisation on Narcotised Guinea Pigs (in vivo model)
The animals were narcotised with urethane (1.5 g/kg). The trachea was cannulated for volume controlled respiration. The two carotid arteries were then exposed operatively. A Tip catheter (3F) was introduced through the right carotid artery and moved forwards through the ascending aorta into the left ventricle while the pressure was continuously recorded. Successful passage through the aortic valves is recognised by the typical left ventricular pressure curve. A thermistor probe (3F, F. Edwards) is pushed forwards into the aortic arch through the left carotid for thermodilution. The thermistor probe also has a lumen for the recording of arterial blood pressure. A catheter is passed through the right jugular vein to be placed in front of the right auricle for application of the cold injectate (0.2 ml of 0.9% NaCl, 15° C.). The ECG is recorded in the first shunt. All substances are dissolved in physiological saline solution and infused through the left jugular vein (infusion volume 0 02 ml/min). The drug is applied after haemodynamic stabilisation and under β-blockage (metoprolol 2 mg/kg i.m.). All circulatory parameters are continuously registered on a direct recorder. The pulse frequency is calculated from the ECG, the contractility (dp/dt) is calculated from the […] and the volumetric cardiac output per unit time is calculated from the thermodilution curve.

[1] = molecular target: T1, phosphodiesterase type III obtained from ox heart (Bos taurus, UniProt A0A3Q1M1E8); assay: Inhibition of phosphodiesterase type III, Method A (Diederen and Weisenberger); assay type: biochemical; conditions: read-out: percentage inhibition of FDE-III activity; for inhibition at 10 µM: 10^-5 mol/l; for inhibition at 1 µM: 10^-6 mol/l; for inhibition at 0.1 µM: 10^-7 mol/l
T1 sequence (A0A3Q1M1E8 1-1126): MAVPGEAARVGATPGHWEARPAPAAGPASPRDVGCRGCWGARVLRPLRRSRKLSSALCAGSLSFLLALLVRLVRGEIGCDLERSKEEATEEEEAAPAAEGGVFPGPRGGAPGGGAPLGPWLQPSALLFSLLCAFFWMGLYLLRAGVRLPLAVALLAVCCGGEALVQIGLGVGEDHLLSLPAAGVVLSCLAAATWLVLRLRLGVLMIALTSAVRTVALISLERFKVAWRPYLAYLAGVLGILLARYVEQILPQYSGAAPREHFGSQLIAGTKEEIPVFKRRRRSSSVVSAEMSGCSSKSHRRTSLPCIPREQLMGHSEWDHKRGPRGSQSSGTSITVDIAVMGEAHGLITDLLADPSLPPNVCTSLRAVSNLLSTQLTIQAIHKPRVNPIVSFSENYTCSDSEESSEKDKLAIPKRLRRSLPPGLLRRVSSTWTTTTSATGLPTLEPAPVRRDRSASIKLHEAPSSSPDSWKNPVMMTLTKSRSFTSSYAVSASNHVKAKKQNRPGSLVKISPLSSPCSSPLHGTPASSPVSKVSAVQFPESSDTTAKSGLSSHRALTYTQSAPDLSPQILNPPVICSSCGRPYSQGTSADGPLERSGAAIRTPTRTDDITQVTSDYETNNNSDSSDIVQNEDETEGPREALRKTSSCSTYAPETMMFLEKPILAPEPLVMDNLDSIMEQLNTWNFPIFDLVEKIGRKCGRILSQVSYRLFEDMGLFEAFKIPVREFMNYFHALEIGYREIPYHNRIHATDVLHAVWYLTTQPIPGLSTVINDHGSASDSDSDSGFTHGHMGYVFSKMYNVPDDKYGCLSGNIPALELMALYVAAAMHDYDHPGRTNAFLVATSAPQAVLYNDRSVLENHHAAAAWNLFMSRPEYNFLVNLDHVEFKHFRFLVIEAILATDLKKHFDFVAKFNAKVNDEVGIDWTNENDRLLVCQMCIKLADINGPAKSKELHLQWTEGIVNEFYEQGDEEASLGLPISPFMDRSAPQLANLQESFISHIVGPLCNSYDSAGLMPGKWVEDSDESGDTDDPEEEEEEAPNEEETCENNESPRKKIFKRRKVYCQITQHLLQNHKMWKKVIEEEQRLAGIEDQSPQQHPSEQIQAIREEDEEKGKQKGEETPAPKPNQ
Description: (§2) The inhibitory action of the compounds according to the invention on phosphodiesterase was tested on phosphodiesterase type III obtained from ox heart (Sigma Chemie, BRD) by the methods of W. Diederen and H. Weisenberger (Arzneim.-Forschumg 31, 177 (1981)) (Method A) and of M. A. Appleman and W. L. Terasaki (Advances in Cyclic Nucleotide Research, volume 5, Raven Press, New York (1975), page 153) (Method B).

[2] = system: isolated, perfused guinea pig hearts; assay: Haemodynamic effects on isolated, perfused Langendorff hearts (guinea pigs); conditions: Cavia porcellus
Description: as §1
1. Investigations on isolated, perfused Langendorff Hearts (guinea pigs)
The arrangement of Langendorff was modified according to P. R. Beckett (J. Pharm. Pharmacol. 22, 818 (1970)) and R. M. Abel and R. L. Reis (Circ. Res. 27, 961 (1970)) to determine the haemodynamic effects of the compounds according to the invention on isolated, perfused guinea pig hearts. The spontaneously beating guinea pig hearts were catheterised in the left ventricle and perfused with solutions of the test substances in physiological saline solution/ethanol (9:1) at concentrations of 10^-4 to 10^-8 mol/1 at a constant perfusion pressure of 60 mm Hg.

[3] = molecular target: T1, phosphodiesterase type III obtained from ox heart; assay: Inhibition of phosphodiesterase type III, Method B (Appleman and Terasaki); assay type: biochemical; conditions: read-out: percentage inhibition of FDE-III activity; for inhibition at 100 µM: 10^-4 mol/l; for inhibition at 10 µM: 10^-5 mol/l; for inhibition at 1 µM: 10^-6 mol/l
Description: as §2

[4] = cited from earlier work
[5] = system: phosphodiesterase type III; conditions: heart muscle cells; cited from earlier work
[6] = concentration range 10^-7 - 10^-5 mol/l, read-out: Maximum percentage changes compared with controls: Cardiac Frequency
[7] = concentration range 10^-7 - 10^-5 mol/l, read-out: Maximum percentage changes compared with controls: Contractility dp/dt
[8] = concentration range 10^-7 - 10^-5 mol/l, read-out: Maximum percentage changes compared with controls: Coronary Flow
[9] = due to the mechanisms of their action

With `CC1CC(=O)NN=C1c1ccc2[nH]c(CCCN)nc2c1` (centres unmarked) [Example 1] the “Maximum percentage changes compared with initial values: Blood Pressure sys.” value (“Maximum percentage changes … Blood Pressure sys.” for short) (narcotised guinea pigs) was -25%, the “Maximum percentage changes compared with initial values: Cardiac Frequency” value (“Maximum percentage changes … Cardiac Frequency” for short) (narcotised guinea pigs) was “+20%” and the “Maximum percentage changes compared with initial values: Contractility dp/dt” value (shortened to “Maximum percentage changes … Contractility dp/dt”) (narcotised guinea pigs) was “+38%”. For the same compound, the inhibition at 100 µM ([1]; 10^-4 mol/l) was 10%, the inhibition at 10 µM [1] was 7% and the inhibition at 1 µM [1] was 0%. It also gave an inhibition at 0.1 µM [1] of 0%, an Emax ([2]; concentration range 10^-8 - 10^-4 mol/l, read-out: Maximum percentage changes compared with controls: Cardiac Frequency) of 11% and an Emax ([2]; concentration range 10^-8 - 10^-4 mol/l, read-out: Maximum percentage changes compared with controls: Contractility dp/dt) of 76%. It also gave an Emax ([2]; concentration range 10^-8 - 10^-4 mol/l, read-out: Maximum percentage changes compared with controls: Coronary Flow) of 25%, an inhibition at 100 µM [3] of 4% and an inhibition at 10 µM [3] of 0%. The inhibition at 1 µM [3] was 0% and the inhibition at 0.1 µM ([3]; 10^-7 mol/l) was 0%.

In the case of `CC1CC(=O)NN=C1c1ccc2[nH]c(CCCNC(=N)NCCCc3c[nH]cn3)nc2c1` (centres unmarked) [Example 6], the “Maximum percentage changes … Blood Pressure sys.” value (narcotised guinea pigs) is reported as -15%, the “Maximum percentage changes … Cardiac Frequency” value (narcotised guinea pigs) is reported as “+17%” and the “Maximum percentage changes … Contractility dp/dt” value (narcotised guinea pigs) is reported as “+97%”. It also gave an Emax [2, 6] of 20%, an Emax [2, 7] of 161% and an Emax [2, 8] of 52%.

In the case of `COc1ccc(-c2nc3ccc(C4=NNC(=O)CC4C)cc3[nH]2)cc1` (centres unmarked) [Pimobendane, reference compound], the “Maximum percentage changes … Blood Pressure sys.” value (narcotised guinea pigs) is reported as -51%, the “Maximum percentage changes … Cardiac Frequency” value (narcotised guinea pigs) is reported as “+3%” and the “Maximum percentage changes … Contractility dp/dt” value (narcotised guinea pigs) is reported as “+10%”. The undesirable side effects ([4]; in vivo) was “undesirable side effects due to the mechanisms of their action, such as thrombocytopaenia or gastrointestinal disturbances”, the inhibition at 10 µM [1] was 30% and the inhibition at 1 µM [1] was 15%. It also gave an inhibition at 0.1 µM [1] of 7%, an Emax [2, 6] of 8% and an Emax [2, 7] of 99%. It also gave an Emax [2, 8] of 76%, an inhibition at 100 µM [3] of 57% and an inhibition at 10 µM [3] of 19%. For the same compound, the inhibition at 1 µM [3] was 5% and the “positive inotropic effect by inhibiting phosphodiesterases, in particular type III” value [5] was “positive inotropic effect”.

In the case of `Nc1cc(-c2ccncc2)c[nH]c1=O` [amrinone], the undesirable side effects [4, 9] is given as “undesirable side effects due to the mechanisms of their action, such as thrombocytopaenia or gastrointestinal disturbances” and the “positive inotropic effect by inhibiting phosphodiesterases, in particular type III” value [5] is given as “positive inotropic effect”.

For `Cc1[nH]c(=O)c(C#N)cc1-c1ccncc1` [milrinone], the undesirable side effects [4, 9] is listed as “undesirable side effects due to the mechanisms of their action, such as thrombocytopaenia or gastrointestinal disturbances” and the “positive inotropic effect by inhibiting phosphodiesterases, in particular type III” value [5] is listed as “positive inotropic effect”.
